Results reported in US10030016B2 (Sunesis Pharmaceuticals, Inc., priority 2009, dated 2018).
Structures can show the parent of a compound that is named as a salt. Where two headings read alike, the source gives them in different places.

Key:
PDK1 = PDK1 (Homo sapiens (Human), UniProt O15530); assay: PDK1 kinase assay (coupled PDK1/AKT/FAM-crosstide assay, IMAP fluorescence polarization); format: biochemical
How it was run: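 PDK1 activity is measured indirectly through activation of a PIFtide-fused AKT2 construct that phosphorylates FAM-crosstide (100 nM). The reaction uses 0.75 nM PDK1, 40 μM ATP, 30 min, 25° C, with IMAP polarization detection.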

[1] = system: phospho-akt (Thr308) in PC-3 cells; assay: Inhibition of phospho-akt (Thr308) in PC-3 cells, MSD phospho-akt 308 ELISA kit; format: cell-based; details: 2 hours, no serum, read-out: EC50
How it was run: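 PC-3 cells (15,000/well, overnight in 10% FBS medium) treated 2 h with three-fold diluted compounds in serum-free medium; DMSO high and 5 μM wortmannin low controls. Lysates captured on BSA-blocked MSD plates overnight at 4 °C, then 1 h antibody detection at RT; phospho-Akt Thr308 read by MSD electrochemiluminescence.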

[2] = Homo sapiens, inhibition of P308 Akt in PC-3 cells using MSD
[3] = inhibition of phospo-PDK1 in vitro
[4] = Homo sapiens, PC-3, 2 h, inhibition of P308 Akt in PC-3 cells, MSD
[5] = Homo sapiens, inhibition of P308 Akt in PC-3 cells, MSD

Chain of PDK1 (O15530 51-359): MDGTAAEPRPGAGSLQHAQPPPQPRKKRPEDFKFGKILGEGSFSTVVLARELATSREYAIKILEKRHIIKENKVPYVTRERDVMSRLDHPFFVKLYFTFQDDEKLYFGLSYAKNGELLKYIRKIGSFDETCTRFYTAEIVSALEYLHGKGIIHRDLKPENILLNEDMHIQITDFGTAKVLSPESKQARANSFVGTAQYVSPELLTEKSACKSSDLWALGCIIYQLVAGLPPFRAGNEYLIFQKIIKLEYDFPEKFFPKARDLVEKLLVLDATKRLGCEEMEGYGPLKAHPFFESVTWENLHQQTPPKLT

| Structure (SMILES) | IC50 (PDK1; inhibition of PDK1 in vitro) [nM] | EC50 [1, 2] [nM] | IC50 (PDK1; [3]) [nM] | EC50 [1, 5] [nM] | further results |
| --- | --- | --- | --- | --- | --- |
| Nc1n[nH]c2ncc(-c3ccc(CNc4ncc(C(F)(F)F)cc4C(=O)Nc4ccc(F)cc4)cn3)cc12 [Example 57, 2-(((6-(3-amino-1H-pyrazolo[3,4-b]pyridin-5-yl)pyridin-3-yl)methyl)amino)-N-(4-fluorophenyl)-5-(trifluoromethyl)nicotinamide] | < 100 | < 1000 |  |  |  |
| C[C@H](NC(=O)c1cc(C#N)cnc1NCc1ccc(-c2cnc(N)c(C(=O)NCCO)c2)cc1)c1ccc(F)cc1 [Example 204, (S)-2-amino-5-(4-((5-cyano-3-(1-(4-fluorophenyl)ethylcarbamoyl)pyridin-2-ylamino)methyl)phenyl)-N-(2-hydroxyethyl) nicotinamide] | < 100 | < 1000 |  |  |  |
| C[C@H](NC(=O)c1cccnc1NCc1ccc(-c2ccc3ncnc(N)c3c2)s1)c1ccccn1 [Example 3.58, (S)-2-(((5-(4-aminoquinazolin-6-yl)thiophen-2-yl)methyl)amino)-N-(1-(pyridin-2-yl)ethyl) nicotinamide (TFA salt)] |  |  | 100 to 1000 |  | EC50 [1, 4]: 1000 to 10000 nM |
| Cc1ccc(CNC(=O)c2cccnc2NCc2cc(OC(C)C)cc(-c3c[nH]c4ncc(C(=O)NC5CC5)cc34)c2)o1 [Example 4.1.14, N-cyclopropyl-3-[3-{[(3-{[(5-methylfuran-2-yl)methyl]carbamoyl}pyridin-2-yl)amino]methyl}-5-(propan-2-yloxy)phenyl]-1H-pyrrolo[2,3-b] pyridine-5-carboxamide] |  |  | < 100 | 1000 to 10000 |  |
| C[C@@H](c1ccc(F)c(F)c1)n1cnc2ccnc(NCc3ccc(-c4ccc5ncnc(N)c5c4)s3)c2c1=O [Example 7.10, 5-({[5-(4-aminoquinazolin-6-yl)thiophen-2-yl]methyl}amino)-3-[(1S)-1-(3,4-difluorophenyl)ethyl] pyrido[4,3-d]pyrimidin-4(3H)-one] |  |  | < 100 | < 1000 |  |
| CCn1cc(-c2ccc(CNc3ncc(C(F)(F)F)cc3C(=O)Nc3ccc(F)cc3)cc2)c2c(N)ncnc21 [Example 430, 2-(4-(4-amino-7-ethyl-7H-pyrrolo[2,3-d]pyrimidin-5-yl)benzylamino)-N-(4-fluorophenyl)-5-(trifluoromethyl)nicotinamide] | < 100 | 1000 to 10000 |  |  |  |
| CN(C(=O)c1cc(C(F)(F)F)cnc1NCc1ccc(-c2cnc3[nH]nc(N)c3c2)cc1)c1ccc(F)cc1 [Example 290, 2-(4-(3-amino-1H-pyrazolo [3,4-b]pyridin-5-yl)benzylamino)-N-(4-fluorophenyl)-N-methyl-5-(trifluoromethyl) nicotinamide] | > 5000 | 1000 to 10000 |  |  |  |
| Nc1ncnc2ccc(-c3ccc(CNc4ncccc4C(=O)Nc4ccc(F)c(C(F)(F)F)c4)s3)cc12 [Example 3.51, 2-({[5-(4-aminoquinazolin-6-yl)thiophen-2-yl]methyl}amino)-N-[4-fluoro-3-(trifluoromethyl)phenyl]pyridine-3-carboxamide (TFA salt)] |  |  | 1000 to 5000 | 1000 to 10000 |  |
| Nc1ncnc2ccc(-c3ccc(CNc4nccnc4C(=O)NCc4cc(F)cc(F)c4)s3)cc12 [Example 3.76, 3-({[5-(4-aminoquinazolin-6-yl)thiophen-2-yl]methyl}amino)-N-(3,5-difluorobenzyl)pyrazine-2-carboxamide (TFA salt)] |  |  | < 100 | < 1000 |  |
| C[C@H](NC(=O)c1nc(C#N)cnc1NCc1ccc(-c2cnc(N)c(OCCN)n2)cc1)c1ccc(F)c(F)c1 [Example 167, 3-{4-[5-Amino-6-(2-amino-ethoxy)-pyrazin-2-yl]-benzylamino}-6-cyano-pyrazine-2-carboxylic acid [(S)-1-(3,4-difluoro-phenyl)-ethyl]-amide] | < 100 | < 1000 |  |  |  |
| CNc1cnc2ccc(-c3ccc(CNc4ncccc4C(=O)N[C@@H](C)c4ccc(F)c(F)c4)s3)cc2n1 [Example 4.28, (S)-N-(1-(3,4-difluoro-phenyl)ethyl)-2-(((5-(3-(methyl)amino)quinoxalin-6-yl)thiophen-2-yl)methylamino) nicotinamide] |  |  | 100 to 1000 | 1000 to 10000 |  |
| Nc1n[nH]c2ncc(-c3ccc(CNc4ncc(C(F)(F)F)cc4C(=O)Nc4cccc(C(F)(F)F)c4)cc3)cc12 [Example 294] | < 100 | 1000 to 10000 |  |  |  |
| Nc1ncnc2ccc(-c3ccc(CNc4nccnc4C(=O)NCc4ccc(F)c(F)c4)s3)cc12 [Ex. 10.1] |  |  | < 100 | 1000 to 10000 |  |
| C[C@H](NC(=O)c1nc(C#N)cnc1NCc1ccc(-c2c[nH]c3ncnc(N)c23)cc1)c1ccc(F)c(F)c1 [Example 315, (S)-3-(4-(4-amino-7H-pyrrolo[2,3-d]pyrimidin-5-yl)benzylamino)-6-cyano-N-(1-(3,4-difluoro-phenyl)ethyl)pyrazine-2-carboxamide] | < 100 | < 1000 |  |  |  |
| C[C@H](NC(=O)c1cc(C#N)cnc1NCc1ccc(-c2c[nH]c3ncnc(N)c23)cc1)c1ccc(F)cc1 [Example 41, 2-[4-(4-Amino-7H-pyrrolo[2,3-d]pyrimidin-5-yl)-benzylamino]-5-cyano-N-[(S)-1-(4-fluoro-phenyl)-ethyl]-nicotinamide] | < 100 | < 1000 |  |  |  |
| O=C(NCc1ccc(F)c(F)c1)c1cccnc1NCc1ccc(-c2c[nH]c3ncccc23)s1 [Example 1.17, 2-(((5-(1H-pyrrolo[2,3-b]pyridin-3-yl)thiophen-2-yl)methyl)amino)-N-(3,4-difluorobenzyl)nicotinamide] |  |  | 100 to 1000 |  | EC50 [1, 4]: > 10000 nM |
| Nc1ncnc2ccc(-c3ccc(CNc4ncc(C(F)(F)F)cc4C(=O)NCc4ccc(F)c(F)c4)s3)cc12 [Ex. 8.12.1, 2-(((5-(4-aminoquinazolin-6-yl)thiophen-2-yl)methyl)amino)-N-(3,4-difluorobenzyl)-5-(trifluoromethyl)nicotinamide] |  |  | < 100 | < 1000 |  |
| NCCNc1n[nH]c2ncc(-c3ccc(CNc4ncc(C(F)(F)F)cc4C(=O)Nc4ccc(F)cc4)cc3)cc12 [Example 154, 2-(4-(3-(2-amino-ethylamino)-1H-pyrazolo [3,4-b]pyridin-5-yl)benzylamino)-N-(4-fluorophenyl)-5-(trifluoromethyl) nicotinamide] | < 100 | < 1000 |  |  |  |
| C[C@H](NC(=O)c1cc(C#N)cnc1NCc1ccc(-c2n[nH]c3ncnc(N)c23)cc1)c1ccc(F)cc1 [Example 96, 2-[4-(4-Amino-1H-pyrazolo [3,4-d]pyrimidin-3-yl)-benzylamino]-5-cyano-N-[(S)-1-(4-fluoro-phenyl)-ethyl]-nicotinamide] | < 100 | 1000 to 10000 |  |  |  |
| C[C@H](NC(=O)c1cc(C#N)cnc1NCc1ccc(-c2cnc(N)cn2)cc1F)c1ccc(F)cc1 [Example 130, (S)-2-(4-(5-aminopyrazin-2-yl)-2-fluorobenzylamino)-5-cyano-N-(1-(4-fluorophenyl)ethyl) nicotinamide] | < 100 | 1000 to 10000 |  |  |  |
| CCOC(=O)c1cccnc1NCc1cc(OC(C)C)cc(-c2cn(S(=O)(=O)c3ccccc3)c3ncc(C(=O)NC4CC4)cc23)c1 [4.1.17] |  |  | > 5000 |  | EC50 ([1]; inhibition of P308 Akt in PC-3 cells, MSD): > 10000 nM |
| O=C(NCc1ccc(F)c(F)c1)c1cccnc1NCc1ccc(-c2ccc3ncnc(NCCN4CCCC4)c3c2)s1 [Example 4.20, N-(3,4-difluorobenzyl)-2-(((5-(4-(2-(pyrrolidin-1-yl)ethylamino)quinazolin-6-yl)thiophen-2-yl)methyl)amino)nicotinamide] |  |  | 100 to 1000 | > 10000 |  |
| Nc1ncnc2ccc(-c3ccc(CNc4ncccc4C(=O)NCc4ccccc4)s3)cc12 [Example 3.56, 2-({[5-(4-aminoquinazolin-6-yl)thiophen-2-yl]methyl}amino)-N-benzylpyridine-3-carboxamide (TFA salt)] |  |  | 100 to 1000 | 1000 to 10000 |  |
| Nc1ncnc2ccc(-c3ccc(CNc4nc(Cl)cc5ncn(Cc6ccc(F)c(F)c6)c(=O)c45)s3)cc12 [Ex. 7.17, 5-({[5-(4-aminoquinazolin-6-yl)thiophen-2-yl]methyl}amino)-7-chloro-N-3-(3,4-difluorobenzyl)pyrido [4,3-d]pyrimidin-4(3H)-one] |  |  | < 100 | 1000 to 10000 |  |
| Nc1ncnc2ccc(-c3ccc(CNc4nccnc4C(=O)NCc4ccc(F)cc4F)s3)cc12 [Example 3.75, 3-({[5-(4-aminoquinazolin-6-yl)thiophen-2-yl]methyl}amino)-N-(2,4-difluorobenzyl)pyrazine-2-carboxamide (TFA salt)] |  |  | < 100 | > 10000 |  |
| O=C(NCc1ccc(F)c(F)c1)c1cccnc1Nc1cccc(-c2cccn3c(=O)[nH]nc23)c1 [Example 17.3] |  |  | 100 to 1000 | > 10000 |  |
| C[C@H](NC(=O)c1nc(C#N)cnc1NCc1ccc(-c2cnc(N)c(N3CCC[C@@H](N)C3)n2)cc1)c1ccc(F)c(F)c1 [Example 190, 3-{4-[5-Amino-6-((R)-3-amino-piperidin-1-yl)-pyrazin-2-yl]-benzylamino}-6-cyano-pyrazine-2-carboxylic acid [(S)-1-(3,4-difluoro-phenyl)-ethyl]-amide] | < 100 | 1000 to 10000 |  |  |  |
| C[C@H](NC(=O)c1cc(F)cnc1NCc1ccc(-c2cc3c(N)ncnc3cn2)s1)c1ccc(F)c(F)c1 [Example 7.15, 2-({[5-(4-aminopyrido[3,4-d]pyrimidin-6-yl)thiophen-2-yl]methyl}amino)-N-[(1S)-1-(3,4-difluorophenyl)ethyl]-5-fluoropyridine-3-carboxamide] |  |  | 100 to 1000 | 1000 to 10000 |  |
